Laboratory results as given in ChEMBL document CHEMBL5113453, “Design, synthesis, and biological evaluation of a new series of pyrazole derivatives: Discovery of potent and selective JNK3 kinase inhibitors” (Bioorg Med Chem, 2022).

How the values were obtained:
NCI/ADR-RES = assay: Antiproliferative activity against human NCI-ADR-RES cells measured after 48 hrs by SRB assay; assay type: functional, cell-based; conditions: for IC50: 48 h; for TGI: time 48 hrs
ACHN = assay: Antiproliferative activity against human ACHN cells measured after 48 hrs by SRB assay; assay type: functional, cell-based; conditions: for IC50: 48 h; for TGI: time 48 hrs
NCI-H322M = assay: Antiproliferative activity against human NCI-H322M cells measured after 48 hrs by SRB assay; assay type: functional, cell-based; conditions: for IC50: 48 h; for TGI: time 48 hrs
KM12 = assay: Antiproliferative activity against human KM12 cells measured after 48 hrs by SRB assay; assay type: functional, cell-based; conditions: for IC50: KM12, 48 h; for TGI: KM12, time 48 hrs
NCI-H522 = assay: Antiproliferative activity against human NCI-H522 cells measured after 48 hrs by SRB assay; assay type: functional, cell-based; conditions: for IC50: NCI-H522, 48 h; for TGI: NCI-H522, time 48 hrs
MDA-MB-435 = assay: Antiproliferative activity against human MDA-MB-435 cells measured after 48 hrs by SRB assay; assay type: functional, cell-based; conditions: for IC50: MDA-MB-435, 48 h; for TGI: MDA-MB-435, time 48 hrs
SK-MEL-28 = assay: Antiproliferative activity against human SK-MEL-28 cells measured after 48 hrs by SRB assay; assay type: functional, cell-based; conditions: for IC50: SK-MEL-28, 48 h; for TGI: SK-MEL-28, time 48 hrs
DU-145 = assay: Antiproliferative activity against human DU-145 cells measured after 48 hrs by SRB assay; assay type: functional, cell-based; conditions: for IC50: DU-145, 48 h; for TGI: DU-145, time 48 hrs
TK-10 = assay: Antiproliferative activity against human TK-10 cells measured after 48 hrs by SRB assay; assay type: functional, cell-based; conditions: for IC50: TK-10, 48 h; for TGI: TK-10, time 48 hrs
NCI-H226 = assay: Antiproliferative activity against human NCI-H226 cells measured after 48 hrs by SRB assay; assay type: functional, cell-based; conditions: for IC50: NCI-H226, 48 h; for TGI: NCI-H226, time 48 hrs
RPMI-8226 = assay: Antiproliferative activity against human RPMI-8226 cells measured after 48 hrs by SRB assay; assay type: functional, cell-based; conditions: for IC50: RPMI-8226, 48 h; for TGI: RPMI-8226, time 48 hrs
HCC 2998 = assay: Antiproliferative activity against human HCC 2998 cells measured after 48 hrs by SRB assay; assay type: functional, cell-based; conditions: for IC50: HCC 2998, 48 h; for TGI: HCC 2998, time 48 hrs
HCT-15 = assay: Antiproliferative activity against human HCT-15 cells measured after 48 hrs by SRB assay; assay type: functional, cell-based; conditions: for IC50: HCT-15, 48 h; for TGI: HCT-15, time 48 hrs
[1] = target: T1, Mitogen-activated protein kinase 10 (Homo sapiens, UniProt P53779); assay: Inhibition of JNK3 (unknown origin)
T1 sequence (P53779 whole entry): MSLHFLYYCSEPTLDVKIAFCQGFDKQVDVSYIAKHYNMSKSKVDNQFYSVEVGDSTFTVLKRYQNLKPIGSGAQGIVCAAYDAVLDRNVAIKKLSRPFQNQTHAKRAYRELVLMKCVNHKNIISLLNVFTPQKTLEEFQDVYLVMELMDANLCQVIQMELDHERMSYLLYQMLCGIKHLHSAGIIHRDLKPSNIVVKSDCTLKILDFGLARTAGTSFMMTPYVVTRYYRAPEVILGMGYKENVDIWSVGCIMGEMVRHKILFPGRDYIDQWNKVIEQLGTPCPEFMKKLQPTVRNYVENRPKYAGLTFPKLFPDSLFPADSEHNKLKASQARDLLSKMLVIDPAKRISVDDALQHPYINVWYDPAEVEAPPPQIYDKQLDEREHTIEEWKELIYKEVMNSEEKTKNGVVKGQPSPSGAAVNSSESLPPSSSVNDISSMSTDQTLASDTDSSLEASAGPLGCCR

[2] = target: T1, Mitogen-activated protein kinase 10; assay: Inhibition of JNK3 (unknown origin) at 1 uM relative to control
OVCAR-5 = assay: Antiproliferative activity against human OVCAR-5 cells measured after 48 hrs by SRB assay; assay type: functional, cell-based; conditions: for IC50: OVCAR-5, 48 h; for TGI: OVCAR-5, time 48 hrs
CCRF-CEM = assay: Antiproliferative activity against human CCRF-CEM cells measured after 48 hrs by SRB assay; assay type: functional, cell-based; conditions: for IC50: 48 h; for TGI: time 48 hrs
SNB-75 = assay: Antiproliferative activity against human SNB-75 cells measured after 48 hrs by SRB assay; assay type: functional, cell-based; conditions: for IC50: SNB-75, 48 h; for TGI: SNB-75, time 48 hrs
T47D = assay: Antiproliferative activity against human T47D cells measured after 48 hrs by SRB assay; assay type: functional, cell-based; conditions: for IC50: 48 h; for TGI: time 48 hrs
HCT-116 = assay: Antiproliferative activity against human HCT-116 cells measured after 48 hrs by SRB assay; assay type: functional, cell-based; conditions: for IC50: HCT-116, 48 h; for TGI: HCT-116, time 48 hrs
UO-31 = assay: Antiproliferative activity against human UO-31 cells measured after 48 hrs by SRB assay; assay type: functional, cell-based; conditions: for IC50: UO-31, 48 h; for TGI: UO-31, time 48 hrs
MDA-MB-231 = assay: Antiproliferative activity against human MDA-MB-231 cells measured after 48 hrs by SRB assay; assay type: functional, cell-based; conditions: for IC50: MDA-MB-231, 48 h; for TGI: MDA-MB-231, time 48 hrs
BT-549 = assay: Antiproliferative activity against human BT-549 cells measured after 48 hrs by SRB assay; assay type: functional, cell-based; conditions: for IC50: BT-549, 48 h; for TGI: BT-549, time 48 hrs

Compound: O=C(Nc1ccc(Cl)c(C(F)(F)F)c1)N1CCN(c2cc(-c3cn(-c4ccccc4)nc3-c3cccc(O)c3)ccn2)CC1
- IC50 (NCI/ADR-RES): 2.91 µM
- TGI (NCI/ADR-RES): 11.9 µM
- IC50 (ACHN): 3 µM
- TGI (ACHN): 17 µM
- IC50 (NCI-H322M): 5.86 µM
- TGI (NCI-H322M): > 22 µM
- IC50 (KM12): 3340 nM
- TGI (KM12): 15.2 µM
- IC50 (NCI-H522): 2.77 µM
- TGI (NCI-H522): 9.26 µM
- IC50 (MDA-MB-435): 2.29 µM
- TGI (MDA-MB-435): 6.33 µM
- IC50 (SK-MEL-28): 3.41 µM
- TGI (SK-MEL-28): 10.3 µM
- IC50 (DU-145): 7.15 µM
- TGI (DU-145): > 22 µM
- IC50 (TK-10): 5.92 µM
- TGI (TK-10): > 22 µM
- IC50 (NCI-H226): 3.22 µM
- TGI (NCI-H226): 15.8 µM
- IC50 (RPMI-8226): 1.21 µM
- TGI (RPMI-8226): 11.8 µM
- IC50 (HCC 2998): 6.1 µM
- TGI (HCC 2998): > 22 µM
- IC50 (HCT-15): 2.84 µM
- TGI (HCT-15): > 22 µM
- IC50 [1]: > 1000 nM
- inhibition [2]: 14%
- IC50 (OVCAR-5): 4.13 µM
- TGI (OVCAR-5): 10.5 µM
- IC50 (CCRF-CEM): 1.59 µM
- TGI (CCRF-CEM): 9.71 µM
- IC50 (SNB-75): 0.63 µM
- TGI (SNB-75): 11.1 µM
- IC50 (T47D): 1130 nM
- TGI (T47D): 14.8 µM
- IC50 (HCT-116): 1.86 µM
- TGI (HCT-116): > 22 µM
- IC50 (UO-31): 3 µM
- TGI (UO-31): > 22 µM
- IC50 (MDA-MB-231): 3.07 µM
- TGI (MDA-MB-231): 7.57 µM
- IC50 (BT-549): 3.33 µM
- TGI (BT-549): 7.99 µM

Compound: O=C1c2ccccc2-c2n[nH]c3cccc1c23
- IC50 (NCI/ADR-RES): 22.6 µM
- TGI (NCI/ADR-RES): 59.2 µM
- IC50 (ACHN): 6.64 µM
- TGI (ACHN): > 100 µM
- IC50 (NCI-H322M): 24.9 µM
- TGI (NCI-H322M): > 100 µM
- IC50 (KM12): 2620 nM
- TGI (KM12): 72.1 µM
- IC50 (NCI-H522): 12.2 µM
- TGI (NCI-H522): 50.4 µM
- IC50 (MDA-MB-435): 12.8 µM
- TGI (MDA-MB-435): > 100 µM
- IC50 (SK-MEL-28): 37.5 µM
- TGI (SK-MEL-28): > 100 µM
- IC50 (DU-145): 28.2 µM
- TGI (DU-145): > 100 µM
- IC50 (TK-10): 5.93 µM
- TGI (TK-10): 52 µM
- IC50 (NCI-H226): 22.9 µM
- TGI (NCI-H226): > 100 µM
- IC50 (RPMI-8226): 18.8 µM
- TGI (RPMI-8226): > 100 µM
- IC50 (HCC 2998): 9.62 µM
- TGI (HCC 2998): 54.6 µM
- IC50 (HCT-15): 8.04 µM
- TGI (HCT-15): > 100 µM
- IC50 (OVCAR-5): 24.4 µM
- TGI (OVCAR-5): 85.5 µM
- IC50 (CCRF-CEM): 16 µM
- TGI (CCRF-CEM): > 100 µM
- IC50 (SNB-75): 16.9 µM
- TGI (SNB-75): 97.5 µM
- IC50 (T47D): > 100000 nM
- TGI (T47D): > 100 µM
- IC50 (HCT-116): 44.6 µM
- TGI (HCT-116): > 100 µM
- IC50 (UO-31): 10.5 µM
- TGI (UO-31): > 100 µM
- IC50 (MDA-MB-231): 65.3 µM
- TGI (MDA-MB-231): > 100 µM
- IC50 (BT-549): 30.8 µM
- TGI (BT-549): > 100 µM
